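Five concentrations, 48 hours, 96-well plates. TGI marks complete inhibition of growth.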
Tests used:
Experiment in all cases: inhibition of tumour cell growth, NCI panel, 48 h
786-0 renal = test system: 786-0 renal
A549 NSCLC = test system: A549 NSCLC
ACHN renal = test system: ACHN renal
BT-549 breast = test system: BT-549 breast
CAKI-1 renal = test system: CAKI-1 renal
CCRF-CEM leukemia = test system: CCRF-CEM leukemia
COLO 205 colon = test system: COLO 205 colon
DU-145 prostate = test system: DU-145 prostate
EKVX NSCLC = test system: EKVX NSCLC
HCT-116 colon = test system: HCT-116 colon
HCT-15 colon = test system: HCT-15 colon
HL-60(TB) leukemia = test system: HL-60(TB) leukemia
HOP-62 NSCLC = test system: HOP-62 NSCLC
HOP-92 NSCLC = test system: HOP-92 NSCLC
HS 578T breast = test system: HS 578T breast
HT29 colon = test system: HT29 colon
IGROV1 ovarian = test system: IGROV1 ovarian
K-562 leukemia = test system: K-562 leukemia
KM12 colon = test system: KM12 colon
LOX IMVI melanoma = test system: LOX IMVI melanoma
M14 melanoma = test system: M14 melanoma
MALME-3M melanoma = test system: MALME-3M melanoma
MCF7 breast = test system: MCF7 breast
MDA-MB-435 = test system: MDA-MB-435
MDA-N = test system: MDA-N
MOLT-4 leukemia = test system: MOLT-4 leukemia
NCI-H226 lung = test system: NCI-H226 lung
NCI-H23 lung = test system: NCI-H23 lung
NCI-H460 lung = test system: NCI-H460 lung
NCI-H522 lung = test system: NCI-H522 lung
NCI/ADR-RES ovarian = test system: NCI/ADR-RES ovarian
OVCAR-3 ovarian = test system: OVCAR-3 ovarian
OVCAR-4 ovarian = test system: OVCAR-4 ovarian
OVCAR-5 ovarian = test system: OVCAR-5 ovarian
OVCAR-8 ovarian = test system: OVCAR-8 ovarian
PC-3 prostate = test system: PC-3 prostate
RPMI-8226 leukemia = test system: RPMI-8226 leukemia
SF-268 CNS = test system: SF-268 CNS
SF-295 CNS = test system: SF-295 CNS
SK-MEL-2 melanoma = test system: SK-MEL-2 melanoma
SK-MEL-28 melanoma = test system: SK-MEL-28 melanoma
SK-MEL-5 melanoma = test system: SK-MEL-5 melanoma
SK-OV-3 ovarian = test system: SK-OV-3 ovarian
SNB-19 CNS = test system: SNB-19 CNS
SNB-75 CNS = test system: SNB-75 CNS
SR leukemia = test system: SR leukemia
SW-620 colon = test system: SW-620 colon
T-47D breast = test system: T-47D breast
TK-10 renal = test system: TK-10 renal
U251 CNS = test system: U251 CNS
UACC-257 melanoma = test system: UACC-257 melanoma
UACC-62 melanoma = test system: UACC-62 melanoma
UO-31 renal = test system: UO-31 renal
A498 renal = test system: A498 renal
HCC-2998 colon = test system: HCC-2998 colon
MDA-MB-231 breast = test system: MDA-MB-231 breast
RXF 393 renal = test system: RXF 393 renal
SF-539 CNS = test system: SF-539 CNS
SN12C renal = test system: SN12C renal

SMILES: CC1(C)/C(=N\NC(N)=O)C2CCC1C2 (stereo not given)
- TGI (786-0 renal): > 100 µM
- TGI (A549 NSCLC): > 100 µM
- TGI (ACHN renal): > 100 µM
- TGI (BT-549 breast): > 100 µM
- TGI (CAKI-1 renal): > 100 µM
- TGI (CCRF-CEM leukemia): > 100 µM
- TGI (COLO 205 colon): > 100 µM
- TGI (DU-145 prostate): > 100 µM
- TGI (EKVX NSCLC): > 100 µM
- TGI (HCT-116 colon): > 100 µM
- TGI (HCT-15 colon): > 100 µM
- TGI (HL-60(TB) leukemia): > 100 µM
- TGI (HOP-62 NSCLC): > 100 µM
- TGI (HOP-92 NSCLC): > 100 µM
- TGI (HS 578T breast): > 100 µM
- TGI (HT29 colon): > 100 µM
- TGI (IGROV1 ovarian): > 100 µM
- TGI (K-562 leukemia): > 100 µM
- TGI (KM12 colon): > 100 µM
- TGI (LOX IMVI melanoma): > 100 µM
- TGI (M14 melanoma): > 100 µM
- TGI (MALME-3M melanoma): > 100 µM
- TGI (MCF7 breast): > 100 µM
- TGI (MDA-MB-435): > 100 µM
- TGI (MDA-N): > 100 µM
- TGI (MOLT-4 leukemia): > 100 µM
- TGI (NCI-H226 lung): > 100 µM
- TGI (NCI-H23 lung): > 100 µM
- TGI (NCI-H460 lung): > 100 µM
- TGI (NCI-H522 lung): > 100 µM
- TGI (NCI/ADR-RES ovarian): > 100 µM
- TGI (OVCAR-3 ovarian): > 100 µM
- TGI (OVCAR-4 ovarian): > 100 µM
- TGI (OVCAR-5 ovarian): > 100 µM
- TGI (OVCAR-8 ovarian): > 100 µM
- TGI (PC-3 prostate): > 100 µM
- TGI (RPMI-8226 leukemia): > 100 µM
- TGI (SF-268 CNS): > 100 µM
- TGI (SF-295 CNS): > 100 µM
- TGI (SK-MEL-2 melanoma): > 100 µM
- TGI (SK-MEL-28 melanoma): > 100 µM
- TGI (SK-MEL-5 melanoma): > 100 µM
- TGI (SK-OV-3 ovarian): > 100 µM
- TGI (SNB-19 CNS): > 100 µM
- TGI (SNB-75 CNS): > 100 µM
- TGI (SR leukemia): > 100 µM
- TGI (SW-620 colon): > 100 µM
- TGI (T-47D breast): > 100 µM
- TGI (TK-10 renal): > 100 µM
- TGI (U251 CNS): > 100 µM
- TGI (UACC-257 melanoma): > 100 µM
- TGI (UACC-62 melanoma): > 100 µM
- TGI (UO-31 renal): > 100 µM

SMILES: Cc1ccc(S(=O)(=O)c2[nH]cc(/C(=C\C3CCCCC3)[N+](=O)[O-])c2C2CCCCC2)cc1
- TGI (786-0 renal): 0.442 µM
- TGI (A498 renal): 0.837 µM
- TGI (A549 NSCLC): 6.59 µM
- TGI (ACHN renal): 0.619 µM
- TGI (BT-549 breast): 0.813 µM
- TGI (CAKI-1 renal): 0.531 µM
- TGI (CCRF-CEM leukemia): 0.991 µM
- TGI (COLO 205 colon): 0.602 µM
- TGI (DU-145 prostate): 1.49 µM
- TGI (EKVX NSCLC): 1.4 µM
- TGI (HCC-2998 colon): 0.485 µM
- TGI (HCT-116 colon): 0.468 µM
- TGI (HCT-15 colon): 0.46 µM
- TGI (HOP-62 NSCLC): 3.71 µM
- TGI (HOP-92 NSCLC): 3.99 µM
- TGI (HT29 colon): > 100 µM
- TGI (IGROV1 ovarian): 1.13 µM
- TGI (K-562 leukemia): 0.923 µM
- TGI (KM12 colon): 4.1 µM
- TGI (LOX IMVI melanoma): 0.439 µM
- TGI (M14 melanoma): 1.15 µM
- TGI (MALME-3M melanoma): 1.62 µM
- TGI (MCF7 breast): > 100 µM
- TGI (MDA-MB-231 breast): 0.515 µM
- TGI (MDA-MB-435): > 100 µM
- TGI (MDA-N): 0.968 µM
- TGI (MOLT-4 leukemia): 0.94 µM
- TGI (NCI-H226 lung): 9.9 µM
- TGI (NCI-H23 lung): 3.1 µM
- TGI (NCI-H460 lung): 2.99 µM
- TGI (NCI-H522 lung): 0.541 µM
- TGI (NCI/ADR-RES ovarian): 19.9 µM
- TGI (OVCAR-3 ovarian): 0.981 µM
- TGI (OVCAR-4 ovarian): 1.28 µM
- TGI (OVCAR-5 ovarian): 3.71 µM
- TGI (OVCAR-8 ovarian): 2.78 µM
- TGI (PC-3 prostate): 2.53 µM
- TGI (RPMI-8226 leukemia): 0.715 µM
- TGI (RXF 393 renal): 0.407 µM
- TGI (SF-268 CNS): 1.84 µM
- TGI (SF-295 CNS): > 20.6 µM
- TGI (SF-539 CNS): 2.46 µM
- TGI (SK-MEL-2 melanoma): 1.82 µM
- TGI (SK-MEL-28 melanoma): 2.75 µM
- TGI (SK-MEL-5 melanoma): 1.21 µM
- TGI (SK-OV-3 ovarian): > 26.9 µM
- TGI (SN12C renal): 0.49 µM
- TGI (SNB-19 CNS): 3.98 µM
- TGI (SNB-75 CNS): 5.81 µM
- TGI (SR leukemia): 0.891 µM
- TGI (SW-620 colon): 3.67 µM
- TGI (T-47D breast): 1.29 µM
- TGI (TK-10 renal): 2.08 µM
- TGI (U251 CNS): 4.56 µM
- TGI (UACC-257 melanoma): 1.2 µM
- TGI (UACC-62 melanoma): 0.625 µM
- TGI (UO-31 renal): 1.32 µM

Source: PubChem BioAssay (NCI)
